Measured values from US10662210B2, “Compositions and methods comprising osmium for the treatment of cancers” (Massachusetts Institute of Technology, priority 2014, dated 2020).
Read-outs that look alike come from different tables or passages of the source.

Tests used:
Format in all cases: cell-based, human
[1] = system: cleaved caspase 3, 7, 9 and PARP in A2780 cells; assay: Immunoblotting analysis, apoptosis pathway; conditions: 72 h
Protocol: To have a more complete understanding of the cellular response induced by 2 or 4, their mode of cell killing was evaluated. Many clinically approved cancer drugs exert their cytotoxic effects through apoptosis, and so the features related to this pathway were monitored. Apoptotic cells underwent morphological changes that lead to cell membrane disorientation. […] Cells can undergo other forms of cell death such as necrosis and autophagy. To probe these pathways, cytotoxicity assays were carried out in the presence of […], chloroquine, and IM-54, respectively. Because both chloroquine and IM-54 had little effect on the potency of either of the osmium complexes, necrosis and autophagy were ruled out as possible death pathways. […] On the other hand, 4 initiated ER stress, culminating in p53 independent, caspase directed apoptosis (FIG. 4).
A2780 cells (5×10^5 cells) were incubated with the osmium complexes (concentrations, μM) for 72 h at 37° C. […] After incubation with horseradish peroxidase-conjugated secondary antibodies (Cell Signalling Technology), immune complexes were detected with the ECL detection reagent (BioRad) and analyzed using an Alpha Innotech ChemiImager™ 5500 fitted with a chemiluminescence filter.

A2780 cells = assay: Cytotoxicity MTT assay with pathway and cell death inhibitors; conditions: for effect of chloroquine and IM-54 on potency: inhibitors 10 μM; for effect of p53 inhibitors on toxicity: pifithrin-α and pifithrin-μ, both 10 μM; for IC50: 72 hours incubation
Protocol: This finding led to the investigation of the possibility that 4 may induce endoplasmic reticulum (ER) stress. Co-administration of 4 and salubrinal (10 μM), a known ER stress inhibitor, reduced the cytotoxicity of 4 in A2780 cells. […] To further validate the ER as the main target for 4, the expression of proteins related to the unfolded protein response (UPR) was monitored. […] ER membrane expansion is widely associated with ER stress. With this fact in mind the ER size of A2780 cells upon incubation with 4 were examined using fluorescence microscopy. Relative to untreated controls (FIG. 3B), cells exposed to 4 (10 μM) for 4 h had 25.1% larger ER coverage (FIG. 3C). The ER size relative to the whole cell of the untreated controls was about 30% and the ER size relative to the whole cell of the treated samples was about 55%.
(§1) Having established the intracellular targets of 2 and 4, the role of p53, a cell cycle and apoptosis regulator, in the cellular responses evoked was investigated. […] Therefore, p53 played a fundamental role in coordinating the cellular response to 2-induced DNA damage. […] (FIG. 13). […] To relate p53 to potency, cytotoxicity studies were conducted in the presence of p53 inhibitors pifithrin-α and pifithrin-μ. (both 10 μM). […] The IC50 values of compound 2 in the absence and presence of p53 inhibitor pifithrin-μ after 72 hours incubation was about 2 μM and about 30 μM, respectively.
(§2) The colorimetric MTT assay was used to determine the toxicity of the osmium complexes and cisplatin. Cells (2×10^3) were seeded in each well of a 96-well plate. After incubating the cells overnight, various concentrations of test compound (0.3-100 μM) were added and incubated for 72 h (total volume 200 μL). The test compounds were prepared as 10 mM solutions in DMSO and diluted using media. The final concentration of DMSO in each well was 0.5% and this amount was present in the untreated control as well. Cisplatin was prepared as a 5 mM solution in PBS and diluted further using media. After 72 h, the medium was removed, 200 μL of a 0.4 mg/mL solution of MTT in DMEM or RPMI was added, and the plate was incubated for an additional 1-2 h. The DMEM/MTT or RPMI/MTT mixture was aspirated and 200 μL of DMSO was added to dissolve the resulting purple formazan crystals. The absorbance of the solution wells was read at 550 nm. Absorbance values were normalized to DMSO-containing control wells and plotted as concentration of test compound versus % cell viability. IC50 values were interpolated from the resulting dose dependent curves. The reported IC50 values are the average from at least three independent experiments, each of which consisted of six replicates per concentration level.
For specific pathway and cell death inhibitor assays, inhibitors of p53 (pifithrin-α, 10 μM and pifithrin-μ, 10 μM), ER stress (salubrinal, 10 μM), necrosis (IM-54, 10 μM), and autophagocytosis (chloroquine, 10 μM) were added to cells and incubated for 0-1 h prior to treatment with the test compounds.

A549 (lung) = assay: Cytotoxicity MTT assay; conditions: 72 h
Protocol: (§3) The anti-proliferative properties of 1-4 against a panel of human cancer cell lines were assessed by the MTT [3-(4,5-dimethylthiazol-2-yl)-2,5-diphenyltetrazolium bromide] assay. Cisplatin was included as a control. The IC50 values, concentrations required to induce 50% viability, were derived from dose-response curves and are summarized in Table 1.
(§4) A549 lung adenocarcinoma, HeLa cervical cancer, and MRC5 normal human fetal lung fibroblast cell lines were maintained in Dulbecco's Modified Eagle's Medium (DMEM-low glucose) supplemented with 10% fetal bovine serum and 1% penicillin/streptomycin. The cisplatin-sensitive A2780 ovarian cancer and the cisplatin-resistant A2780/CP70 ovarian cancer cell lines were cultured in RPMI (glutamine free) media supplemented with 10% fetal bovine serum and 1% penicillin/streptomycin. All cells were grown at 310 K in a humidified atmosphere containing 5% CO2.
as §2

A2780/CP70 (ovarian) = assay: Cytotoxicity MTT assay; conditions: 72 h, cisplatin-resistant
Protocol: as §3, §4, §2

HeLa (cervical) = assay: Cytotoxicity MTT assay; conditions: 72 h
Protocol: as §3, §4, §2

MRC-5 (lung normal) = assay: Cytotoxicity MTT assay; conditions: 72 h
Protocol: as §3, §4, §2

A2780 (ovarian) = assay: Cytotoxicity MTT assay; conditions: for IC50: MTT, 72 h
Protocol: as §3, §4, §2

[2] = system: phosphorylated H2AX (γH2AX), CHK2, CHK1, p53 (Ser15) in A2780 cells; assay: Immunoblotting analysis, DNA damage pathway; conditions: 72 hours
Protocol: To gain further insight into the modes of action of 2 and 4, immunoblotting analyses were conducted to monitor changes in expression of biomarkers related to the DNA damage pathway (FIG. 8). […] This difference could be related to steric effects imposed by the phenyl groups in 4.
(§5) A2780 cells (5×10^5 cells) were incubated with the osmium complexes (concentrations, μM) for 72 h at 37° C. Cells were washed with PBS, scraped into SDS-PAGE loading buffer (64 mM Tris-HCl (pH6.8)/9.6% glycerol/2% SDS/5% β-mercaptoethanol/0.01% Bromophenol Blue), and incubated at 95° C. for 10 min. Whole cell lysates were resolved by 4-20% sodium dodecylsulphate polyacylamide gel electrophoresis (SDS-PAGE; 200 V for 25 min) followed by electro transfer to polyvinylidene difluoride membrane, PVDF (350 mA for 1 h). Membranes were blocked in 5% (w/v) non-fat milk in PBST (PBS/0.1% Tween 20) and incubated with the appropriate primary antibodies (Cell Signalling Technology and Santa Cruz). After incubation with horseradish peroxidase-conjugated secondary antibodies (Cell Signalling Technology), immune complexes were detected with the ECL detection reagent (BioRad) and analyzed using an Alpha Innotech ChemiImager™ 5500 fitted with a chemiluminescence filter.

[3] = system: p53, p21 and BAX in A2780 cells; assay: Immunoblotting analysis, p53 pathway; conditions: for p53 expression: vs untreated cells
Protocol: as §1, §5

Row | Compound | expression of apoptosis positive proteins [1] | effect of chloroquine and IM-54 on potency (A2780 cells) | effect of p53 inhibitors on toxicity (A2780 cells) | IC50 increase on co-administration of salubrinal compared to compound alone (A2780 cells; salubrinal 10 μM) [fold] | IC50 (A549 (lung)) [µM] | IC50 (A2780/CP70 (ovarian)) [µM] | IC50 (HeLa (cervical)) [µM] | IC50 (MRC-5 (lung normal)) [µM] | IC50 (A2780 (ovarian)) [µM] | expression of DNA damage pathway biomarkers [2] | p21 and BAX expression [3] | p53 expression [3] | IC50 (A2780 cells; read-out: IC50 in the absence of pifithrin-α) [µM] | IC50 (A2780 cells; read-out: IC50 in the absence of pifithrin-μ) [µM] | IC50 (A2780 cells; pifithrin-α 10 μM, read-out: IC50 in the presence of pifithrin-α) [µM] | IC50 (A2780 cells; pifithrin-μ 10 μM, read-out: IC50 in the presence of pifithrin-μ) [µM] | effect of salubrinal on toxicity (A2780 cells; salubrinal 10 μM) | higher potency for A2780 than for normal lung fibroblast MRC5 (A2780 (ovarian); A2780 vs MRC5) [fold]
1 | [N]#[Os]1([Cl])([Cl])([Cl])[N]2C=CC(c3ccccc3)=c3ccc4c(c32)[N]1C=CC=4c1ccccc1 [Complex 4, OsN(4,7-diphenyl-1,10-phenanthroline)Cl3] | expressed apoptosis positive proteins, cleaved caspase 3, 7, 9, and poly ADP ribose polymerase (PARP) | little effect | unaffected | 13.3 | 1.97 ± 0.02 | 3.4 ± 0.28 | 2.86 ± 0.51 | 8.45 ± 1.21 | 3.36 ± 0.09 | little signs of DNA damage | remained fairly constant | did not increase markedly |  |  |  |  |  | 
2 | [N]#[Os]1([Cl])([Cl])([Cl])[N]2C=CC=c3ccc4c(c32)[N]1C=CC=4 [Complex 2, OsN(1,10-phenanthroline)Cl3] | expressed apoptosis positive proteins, cleaved caspase 3, 7, 9, and poly ADP ribose polymerase (PARP) | little effect | increased significantly |  | 7.86 ± 1.41 | 2.96 ± 0.23 | 6.95 ± 0.53 | 16.6 ± 3.61 | 1.99 ± 0.23 | marked increase in expression of the phosphorylated forms of H2AX (γH2AX), CHK2, CHK1, and p53 (Ser15) | dose-dependent increase | higher p53 expression | ~4.5 | ~2 | ~2 | ~30 | limited effect | 8
